Structures are written as SMILES.

human orexin-2 receptor, sequence (O43614 whole entry): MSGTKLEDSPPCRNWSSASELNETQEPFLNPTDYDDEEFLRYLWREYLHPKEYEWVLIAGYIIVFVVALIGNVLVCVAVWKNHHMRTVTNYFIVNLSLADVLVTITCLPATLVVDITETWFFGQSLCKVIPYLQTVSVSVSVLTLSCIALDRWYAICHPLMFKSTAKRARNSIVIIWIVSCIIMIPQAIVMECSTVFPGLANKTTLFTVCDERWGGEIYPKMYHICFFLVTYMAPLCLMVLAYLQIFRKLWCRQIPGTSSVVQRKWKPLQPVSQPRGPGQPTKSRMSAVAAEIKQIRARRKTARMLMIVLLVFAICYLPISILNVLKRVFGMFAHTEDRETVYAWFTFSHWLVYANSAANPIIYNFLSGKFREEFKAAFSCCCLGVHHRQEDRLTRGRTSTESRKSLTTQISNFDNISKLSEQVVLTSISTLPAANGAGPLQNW

One assay addresses human orexin-2 receptor (Homo sapiens (Human), UniProt O43614). Kind of assay: Human orexin 2 receptor radioligand binding ([3H]-EMPA competition). The settings on record: HEK293 cells stably expressing human orexin-2 receptor; [3H]-EMPA 5 nM final; apparent Ki=IC50/(1+C/Kd), Kd=2 nM; read-out: OR 2 Ki.
As to `O=C(c1ccccc1-c1cccs1)N1CC2CN(c3nccc(-c4cn[nH]c4)n3)CC2C1` (stereo not drawn) [Example 62, 2-[4-(1H-Pyrazol-4-yl)pyrimidin-2-yl]-5-[(2-thiophen-2-ylphenyl)carbonyl]octahydro-pyrrolo[3,4-c]pyrrole], the Ki was 42 nM.

Turning to `Cc1nc(N2CC3CN(C(=O)c4ccccc4-n4nccn4)CC3C2)ncc1F` (stereo not drawn) [Example 290, 2-(5-Fluoro-4-methylpyrimidin-2-yl)-5-{[2-(2H-1,2,3-triazol-2-yl)phenyl]carbonyl}octahydropyrrolo[3,4-c]pyrrole], the Ki came out at 19 nM.

With `COc1ccnc(N2CC3CN(C(=O)c4ccccc4-c4cccc(F)c4)CC3C2)n1` (stereo not drawn) [Example 51, 2-[(3′-Fluorobiphenyl-2-yl)carbonyl]-5-(4-methoxypyrimidin-2-yl)octahydro-pyrrolo[3,4-c]pyrrole], the Ki worked out at 644 nM.

As to `COc1ccc(C(=O)N2CC3CN(c4cc(N(C)C)ncn4)CC3C2)c(-n2nccn2)c1` (stereo not drawn) [Example 390, (5-(6-(Dimethylamino)pyrimidin-4-yl)hexahydropyrrolo[3,4-c]pyrrol-2(1H)-yl)(4-methoxy-2-(2H-1,2,3-triazol-2-yl)phenyl)methanone], the Ki was 190 nM.

`COc1cc(OC)nc(N2CC3CN(C(=O)c4ccc(F)cc4-n4nccn4)CC3C2)n1` (stereo not drawn) [Example 160, 2-(4,6-Dimethoxypyrimidin-2-yl)-5-{[4-fluoro-2-(2H-1,2,3-triazol-2-yl)phenyl]carbonyl}octahydropyrrolo[3,4-c]pyrrole]: the Ki stood at 58 nM.

As to `Cc1nc2ccccc2nc1N1CC2CN(C(=O)c3ccccc3-c3cccs3)CC2C1` (stereo not drawn) [Example 65, 2-Methyl-3-{5-[(2-thiophen-2-ylphenyl)carbonyl]hexahydropyrrolo[3,4-c]pyrrol-2(1H)-yl}quinoxaline], the Ki was 228 nM.

On to `Cc1cccc(N2CC3CN(C(=O)c4ccccc4-c4ccccc4)CC3C2)n1` (stereo not drawn) [Example 173, 2-(Biphenyl-2-ylcarbonyl)-5-(6-methylpyridin-2-yl)octahydropyrrolo[3,4-c]pyrrole], for which the Ki worked out at 950 nM.

Turning to `Cc1cc(C)nc(N2CC3CN(C(=O)c4sccc4-c4ccccc4)CC3C2)n1` (stereo not drawn) [Example 12, 2-(4,6-Dimethylpyrimidin-2-yl)-5-[(3-phenylthiophen-2-yl)carbonyl]octahydropyrrolo[3,4-c]pyrrole], the Ki amounted to 46 nM.

Regarding `Cc1nc(N2CC3CN(C(=O)c4cccc(F)c4-n4nccn4)CC3C2)nc(C)c1C` (stereo not drawn) [Example 240, (3-Fluoro-2-(2H-1,2,3-triazol-2-yl)phenyl)(5-(4,5,6-trimethylpyrimidin-2-yl)hexahydropyrrolo[3,4-c]pyrrol-2(1H)-yl)methanone], the Ki was 7 nM.

With `COc1ccccc1C(=O)N1CC2CN(c3nc(C)cc(C)n3)CC2C1` (stereo not drawn) [Example 201, [5-(4,6-Dimethyl-pyrimidin-2-yl)-hexahydro-pyrrolo[3,4-c]pyrrol-2-yl]-(2-methoxy-phenyl)-methanone], the Ki came out at 1370 nM.

Turning to `COc1cc(N2CC3CN(C(=O)c4ccc(F)cc4-n4nccn4)CC3C2)nc(N(C)C)n1` (stereo not drawn) [Example 7, 4-[5-{[4-Fluoro-2-(2H-1,2,3-triazol-2-yl)phenyl]carbonyl}hexahydropyrrolo[3,4-c]pyrrol-2(1H)-yl]-6-methoxy-N,N-dimethylpyrimidin-2-amine], the Ki worked out at 42 nM.

`Cc1nc(N2CC3CN(C(=O)c4ncccc4-n4nccn4)CC3C2)nc(C)c1C` (stereo not drawn) [Example 323, 2-{[3-(2H-1,2,3-Triazol-2-yl)pyridin-2-yl]carbonyl}-5-(4,5,6-trimethylpyrimidin-2-yl)octahydropyrrolo[3,4-c]pyrrole]: the Ki was 25 nM.

For `Cc1noc(-c2ccccc2C(=O)N2CC3CN(c4nc(C)c5c(n4)CCC5)CC3C2)n1` (stereo not drawn) [Example 319, 4-Methyl-2-[5-{[2-(3-methyl-1,2,4-oxadiazol-5-yl)phenyl]carbonyl}hexahydropyrrolo[3,4-c]pyrrol-2(1H)-yl]-6,7-dihydro-5H-cyclopenta[d]pyrimidine], the Ki stood at 18 nM.

Turning to `COc1ccnc(N2CC3CN(C(=O)c4cc(F)ccc4-c4ncccn4)CC3C2)n1` (stereo not drawn) [Example 150, 2-[(5-Fluoro-2-pyrimidin-2-ylphenyl)carbonyl]-5-(4-methoxypyrimidin-2-yl)octahydropyrrolo[3,4-c]pyrrole], the Ki worked out at 92 nM.

Turning to `Cc1ccc(C(=O)N2CC3CN(c4nc(C)cc(C)n4)CC3C2)c(C)c1` (stereo not drawn) [Example 227, 2-[(2,4-Dimethylphenyl)carbonyl]-5-(4,6-dimethylpyrimidin-2-yl)octahydropyrrolo[3,4-c]pyrrole], the Ki worked out at 1470 nM.

Consider `COc1ccnc(N2CC3CN(C(=O)c4ccc(F)c5ccccc45)CC3C2)n1` (stereo not drawn) [Example 57, 2-[(4-Fluoronaphthalen-1-yl)carbonyl]-5-(4-methoxypyrimidin-2-yl)octahydro-pyrrolo[3,4-c]pyrrole], for which the Ki is 167 nM.

`COc1ccc(C(=O)N2CC3CN(c4nccc(C)n4)CC3C2)c(OC)c1` (stereo not drawn) [Example 186, (2,4-Dimethoxy-phenyl)-[5-(4-methyl-pyrimidin-2-yl)-hexahydro-pyrrolo[3,4-c]pyrrol-2-yl]-methanone]: the Ki was determined as 10000 nM.

For `CCOc1ccc2ccccc2c1C(=O)N1CC2CN(c3nc(C)cc(C)n3)CC2C1` (stereo not drawn) [Example 77, 2-(4,6-Dimethylpyrimidin-2-yl)-5-[(2-ethoxynaphthalen-1-yl)carbonyl]octahydro-pyrrolo[3,4-c]pyrrole], the Ki turned out to be 25 nM.

With `O=C(c1ccccc1-c1cccs1)N1CC2CN(c3ccc4ccccc4n3)CC2C1` (stereo not drawn) [Example 33, 2-{5-[(2-Thiophen-2-ylphenyl)carbonyl]hexahydropyrrolo[3,4-c]pyrrol-2(1H)-yl}quinoline], the Ki stood at 250 nM.

For `O=C(c1cc(F)ccc1-c1ncccn1)N1CC2CN(c3nccc(C(F)(F)F)n3)CC2C1` (stereo not drawn) [Example 148, 2-[(5-Fluoro-2-pyrimidin-2-ylphenyl)carbonyl]-5-[4-(trifluoromethyl)pyrimidin-2-yl]octahydropyrrolo[3,4-c]pyrrole], the Ki is 129 nM.

As for `O=C(c1cccc(F)c1-n1nccn1)N1CC2CN(c3ncc4cc(F)ccc4n3)CC2C1` (stereo not drawn) [Example 242, (3-Fluoro-2-(2H-1,2,3-triazol-2-yl)phenyl)(5-(6-fluoroquinazolin-2-yl)hexahydropyrrolo[3,4-c]pyrrol-2(1H)-yl)methanone], the Ki is 39 nM.

Turning to `Cc1cc(N2CC3CN(C(=O)c4cc(F)ccc4-n4nccn4)CC3C2)nc(C(F)(F)F)n1` (stereo not drawn) [Example 114, 2-{[5-Fluoro-2-(2H-1,2,3-triazol-2-yl)phenyl]carbonyl}-5-[6-methyl-2-(trifluoromethyl)pyrimidin-4-yl]octahydropyrrolo[3,4-c]pyrrole], the Ki came out at 224 nM.

For the compound `COc1ccc(C(=O)N2CC3CN(c4nc5ccc(C)cc5s4)CC3C2)c(OC)c1` (stereo not drawn) [Example 172, 2-{5-[(2,4-Dimethoxyphenyl)carbonyl]hexahydropyrrolo[3,4-c]pyrrol-2(1H)-yl}-6-methyl-1,3-benzothiazole], the Ki was 450 nM.

`CCCc1nc(C)cc(N2CC3CN(C(=O)c4ccccc4-n4nccn4)CC3C2)n1` (stereo not drawn) [Example 209, [5-(6-Methyl-2-propyl-pyrimidin-4-yl)-hexahydro-pyrrolo[3,4-c]pyrrol-2-yl]-(2-[1,2,3]triazol-2-yl-phenyl)-methanone]: the Ki came out at 9000 nM.

On to `O=C(c1cccc(F)c1-c1ncccn1)N1CC2CN(c3ncc4cc(F)ccc4n3)CC2C1` (stereo not drawn) [Example 243, (3-Fluoro-2-(pyrimidin-2-yl)phenyl)(5-(6-fluoroquinazolin-2-yl)hexahydropyrrolo[3,4-c]pyrrol-2(1H)-yl)methanone], for which the Ki was found to be 16 nM.

In the case of `Cc1cc(C)nc(N2CC3CN(C(=O)c4c(-n5nccn5)ccc5c4OCO5)CC3C2)n1` (stereo not drawn) [Example 327, [5-(4,6-Dimethyl-pyrimidin-2-yl)-hexahydro-pyrrolo[3,4-c]pyrrol-2-yl]-(5-[1,2,3]triazol-2-yl-benzo[1,3]dioxol-4-yl)methanone], the Ki is 103 nM.

With `O=C(c1ccccc1-n1cccc1)N1CC2CN(c3cnc4ccccc4n3)CC2C1` (stereo not drawn) [Example 27, 2-[5-{[2-(1H-Pyrrol-1-yl)phenyl]carbonyl}hexahydropyrrolo[3,4-c]pyrrol-2(1H)-yl]quinoxaline], the Ki is 740 nM.

Regarding `Cc1ccoc1C(=O)N1CC2CN(c3cnc4ccccc4n3)CC2C1` (stereo not drawn) [Example 355, (3-Methylfuran-2-yl)(5-(quinoxalin-2-yl)hexahydropyrrolo[3,4-c]pyrrol-2(1H)-yl)methanone], the Ki worked out at 10000 nM.

With `Cc1cc(C)nc(N2CC3CN(C(=O)c4ccccc4-n4cccn4)CC3C2)n1` (stereo not drawn) [Example 67, 2-(4,6-Dimethylpyrimidin-2-yl)-5-{[2-(1H-pyrazol-1-yl)phenyl]carbonyl}octahydro-pyrrolo[3,4-c]pyrrole], the Ki was determined as 119 nM.

Take `Cc1cc(N2CC3CN(C(=O)c4c(F)cccc4-n4nccn4)CC3C2)nc(C(F)(F)F)n1` (stereo not drawn) [Example 98, 2-{[2-Fluoro-6-(2H-1,2,3-triazol-2-yl)phenyl]carbonyl}-5-[6-methyl-2-(trifluoromethyl)pyrimidin-4-yl]octahydropyrrolo[3,4-c]pyrrole]: the Ki amounted to 28 nM.

As for `Cc1ccnc(-c2cc(F)ccc2C(=O)N2CC3CN(c4nc(C)cc(C)n4)CC3C2)c1` (stereo not drawn) [Example 343, (5-(4,6-Dimethylpyrimidin-2-yl)hexahydropyrrolo[3,4-c]pyrrol-2(1H)-yl)(4-fluoro-2-(4-methylpyridin-2-yl)phenyl)methanone], the Ki is 36 nM.

On to `O=C(c1ccccc1-n1nccn1)N1CC2CN(c3nc4ccccc4o3)CC2C1` (stereo not drawn) [Example 144, 2-[5-{[2-(2H-1,2,3-Triazol-2-yl)phenyl]carbonyl}hexahydropyrrolo[3,4-c]pyrrol-2(1H)-yl]-1,3-benzoxazole], for which the Ki amounted to 87 nM.

Still in this assay, the particulars now being: read-out: OR 2 Ki.
`Cc1nc(N2CC3CN(C(=O)c4c(F)cccc4-n4nccn4)CC3C2)cc(=O)[nH]1` (stereo not drawn) [Example 252, 6-[5-{[2-Fluoro-6-(2H-1,2,3-triazol-2-yl)phenyl]carbonyl}hexahydropyrrolo[3,4-c]pyrrol-2(1H)-yl]-2-methylpyrimidin-4(3H)-one]: the Ki is no less than 10000 nM.

The values above are taken from patent US8653263B2 (Janssen Pharmaceutica, priority 2009, dated 2014).
